Data: ChEMBL document CHEMBL5046291, “Evodiamine-Inspired Topoisomerase-Histone Deacetylase Dual Inhibitors: Novel Orally Active Antitumor Agents for Leukemia Therapy” (J Med Chem, 2022)

Experiments:
Assay type in all cases: functional, Homo sapiens
[1] = test system: HEL; assay: Induction of apoptosis in HEL cells assessed as apoptotic cells at 0.1 uM incubated for 48 hrs by annexin V-FITC/PI staining based flow cytometry (reference value: 3.95%)
[2] = test system: HEL; assay: Antitumor activity against HEL cells xenografted in BALB/C mouse assessed as T/C value at 10 mg/kg, po qd for 14 days consecutively by caliper method relative to control; details: time 14 day
[3] = test system: HEL; assay: Induction of apoptosis in HEL cells assessed as apoptotic cells at 0.5 uM incubated for 48 hrs by annexin V-FITC/PI staining based flow cytometry (reference value: 4.23%)

`O=C(CCCCCCC(=O)Nc1ccccc1)NO` [VORINOSTAT] gave an Activity [1] of 15.83%, a T/C [2] of 88.3% and an Activity [3] of 46.97%.
